The values below come from patent publication US11123311B2, “Methods of treating mental disorders” (The Regents of the University of California, priority 2016, dated 2021).

One data set in a line: experimental logP. The format is physicochemical. The following applies: read-out: Exp/ logP.
Data set [1] deals with T1, sEH (Homo sapiens (Human), UniProt P34913).
The next data set in a line: in vivo. The following applies: mouse, po, 3 mg/kg, 3 mg/kg PO, mice.
Another data set deals with TNF-α. The data set can be described thus: serum TNF-α after LPS administration. The format is in vivo. Particulars: TPPU 3.0 mg/kg PO. How it is done: Inflammation model of depression. The procedure of inflammation model of depression was performed as previously reported (36). Behavioral tests were performed 24 hours after a single administration of LPS (0.5 mg/kg). […] Serum sample was collected 90 min after LPS administration, and serum levels of TNF-α were measured using a Ready-SET-Go ELISA kit (eBioscience Inc., San Diego, Calif.), according to manufacturer's instructions. […] Behavioral tests including locomotion (LMT), tail suspension test (TST), and forced swimming test (FST) were performed 1, 3, and 5 hours after administration. […] Behavioral tests including LMT, TST, and FST were performed 24, 26, and 28 hours after administration of LPS.

The conditions of data set [2]: 3 mg/kg PO; mice.
The next data set concerns PC12 cells. Nature of the data set: NGF-induced neurite outgrowth in PC12 cells. The format is cell-based. The following applies: TPPU 0.1, 1.0 or 10 μM, 14,15-EET 0.01, 0.1 or 1.0 μM, concentration dependent. How it is done:
PC12 cells (RIKEN Cell Bank, Tsukuba, Japan) were cultured at 37° C., 5% CO2 in Dulbecco's modified Eagle's medium (DMEM), supplemented with 5% heat-inactivated fetal bovine serum (FBS), 10% heat-inactivated horse serum, and 1% penicillin-streptomycin. Medium was changed two to three times a week. PC12 cells were plated onto 24-well tissue culture plates coated with poly-D-lysine/laminin. Cells were plated at relatively low density (0.25×10^4 cells/cm^2) in DMEM medium containing 0.5% FBS, 1% penicillin-streptomycin. Medium containing a minimal level of serum (0.5% FBS) was used as previously reported (58-60). […]. Four days after incubation with NGF (2.5 ng/ml) with or without specified compounds, morphometric analysis was performed on digitized images of live cells taken under phase-contrast illumination, with an inverted microscope linked to a camera. Images of three fields per well were taken, with an average of 100 cells per field. Differentiated cells were counted by visual examination of the field; only cells that had at least one neurite with a length equal to the cell body diameter were counted, and were then expressed as a percentage of the total cells in the field. Counting was performed in a blinded manner.

For another data set, the system named is astrocyte. The following applies: literature (54); cited from earlier work.
The subject of the next data set is neuronal cell cultures. The following applies: literature (34); cited from earlier work.
In data set [3] the test system is LPS-treated depressed mice. The following applies: literature (36); cited from earlier work.
Data set [4] has as its system mice after social defeat stress. The following applies: single dose; literature (37,39); cited from earlier work.
In data set [5] the target is T1, sEH. Nature of the data set: inhibition of sEH (standard assays). The format is biochemical. From the text:
Any of a number of standard assays for determining epoxide hydrolase activity can be used to determine inhibition of sEH. […] Suitable in vitro assays are described in Zeldin et al., J Biol. Chem. 268:6402-6407 (1993). Suitable in vivo assays are described in Zeldin et al., Arch Biochem Biophys 330:87-96 (1996).
The enzyme also can be detected based on the binding of specific ligands to the catalytic site which either immobilize the enzyme or label it with a probe such as dansyl, fluoracein, luciferase, green fluorescent protein or other reagent. The enzyme can be assayed by its hydration of EETs, its hydrolysis of an epoxide to give a colored product as described by Dietze et al., 1994, supra, or its hydrolysis of a radioactive surrogate substrate (Borhan et al., 1995, supra). The enzyme also can be detected based on the generation of fluorescent products following the hydrolysis of the epoxide. Numerous methods of epoxide hydrolase detection have been described (see, e.g., Wixtrom, supra).
The assays are normally carried out with a recombinant enzyme following affinity purification. They can be carried out in crude tissue homogenates, cell culture or even in vivo, as known in the art and described in the references cited above.

T1 sequence (P34913 whole entry): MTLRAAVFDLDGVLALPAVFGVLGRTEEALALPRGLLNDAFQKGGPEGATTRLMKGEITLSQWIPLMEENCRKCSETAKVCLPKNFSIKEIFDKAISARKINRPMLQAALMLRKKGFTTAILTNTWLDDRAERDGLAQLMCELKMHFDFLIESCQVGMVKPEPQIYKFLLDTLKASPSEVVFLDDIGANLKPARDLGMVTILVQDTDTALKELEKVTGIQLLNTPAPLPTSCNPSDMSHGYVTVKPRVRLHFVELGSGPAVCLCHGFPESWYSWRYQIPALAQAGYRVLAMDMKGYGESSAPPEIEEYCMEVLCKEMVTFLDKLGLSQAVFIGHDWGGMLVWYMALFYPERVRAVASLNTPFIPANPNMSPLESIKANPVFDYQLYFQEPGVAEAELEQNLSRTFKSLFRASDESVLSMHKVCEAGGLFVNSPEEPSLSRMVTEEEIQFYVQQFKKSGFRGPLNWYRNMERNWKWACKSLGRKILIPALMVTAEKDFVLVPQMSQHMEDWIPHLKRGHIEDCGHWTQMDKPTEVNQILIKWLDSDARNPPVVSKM

Regarding `CC[C@H](C)C(=O)N1CCC(NC(=O)Nc2ccc(C(F)(F)F)nc2)CC1` [Compound 42], the logP in “experimental logP” stood at 3.22. The “t1/2 (human sEH)” value on sEH [1] is 0.0617 h.

Turning to `O=C(Nc1ccc(OC(F)(F)F)cc1)NC1CCN(C(=O)C2(C(F)(F)F)CC2)CC1` [Compound 28], in the data set “experimental logP”, the logP was 4.63.

In the case of `CCC(=O)N1CCC(NC(=O)Nc2ccc(OC(F)(F)F)cc2)CC1` [TPPU], the half-life (commonly the time needed for the level to fall by half in the phase considered) in “in vivo” (half-life in the blood (plasma)) is 17.8 h. Also, the half-life in “in vivo” (half-life in the cerebral cortex) is 10.7 h. Further, in the data set on TNF-α, the “serum levels of TNF-α in control mice” value is reported as “no effect”. In [2], the “half-life in the blood (plasma)” value was 17.8 h and the “half-life in the cerebral cortex” value was 10.7 h.

Take `CC(C)C(=O)N1CCC(NC(=O)Nc2ccc(OC(F)(F)F)cc2)CC1` [Compound 2389]: the logP in “experimental logP” stood at 3.37. The “t1/2 (human sEH)” value at sEH [1] is 0.3 h.

Take `CCCCCC1OC1C/C=C\C/C=C\C/C=C\CCCC(=O)O` (stereo not drawn) [14,15-EET]: the NGF-induced neurite outgrowth entry in the data set on PC12 cells was “potentiated”. Besides, the “production of BDNF” value with astrocyte is given as “promote the production of BDNF”. In addition, the axonal growth result with neuronal cell cultures is on record as “enhance axonal growth”.

For `Fc1ccc([C@@H]2CCNC[C@H]2COc2ccc3c(c2)OCO3)cc1` [paroxetine], the “effect in the LPS-induced inflammation model of depression” value in data set [3] is reported as “do not have any effect”.

With `CNC1(c2ccccc2Cl)CCCCC1=O` (stereo not drawn) [ketamine], the “antidepressant effect in the social defeat stress model” value in data set [4] is “rapid antidepressant effect”.

For `COc1ccc(C(CN(C)C)C2(O)CCCCC2)cc1` (stereo not drawn) [venlafaxine], the “effect in the LPS-induced inflammation model of depression” value in [3] is on record as “do not have any effect”.

With `CN[C@@]1(c2ccccc2Cl)CCCCC1=O` [R-ketamine], the “antidepressant effect in the social defeat stress model” value in [4] is given as “rapid antidepressant effect”.

As to `CCCCCCCCCCCCNC(=O)NC12CC3CC(CC(C3)C1)C2` [ADU, N-Adamantyl-N′-dodecyl urea], the “activity as an inhibitor of sEH” value at sEH [5] is “particularly high activity”.
